Reference: patent US10392391B2 (Vertex Pharmaceuticals Incorporated, priority 2012, dated 2019)

molecular target: ATR kinase (full-length ATR) (Homo sapiens (Human), UniProt Q13535); assay: ATR inhibition assay (radioactive-phosphate incorporation); assay type: biochemical; settings: not given
How it was run: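 Ki(app) was fitted by non-linear regression to background-corrected initial rates. Full-length ATR (5 nM) phosphorylated 800 μM peptide using 10 μM [γ-33P]ATP at 25° C in Tris/HCl pH 7.5 buffer with MgCl2, DTT and 7% DMSO. After 10-minute compound pre-incubation and 24-hour reaction, phosphocellulose filters were scintillation counted.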

Sequence of ATR kinase (full-length ATR) (Q13535 whole entry): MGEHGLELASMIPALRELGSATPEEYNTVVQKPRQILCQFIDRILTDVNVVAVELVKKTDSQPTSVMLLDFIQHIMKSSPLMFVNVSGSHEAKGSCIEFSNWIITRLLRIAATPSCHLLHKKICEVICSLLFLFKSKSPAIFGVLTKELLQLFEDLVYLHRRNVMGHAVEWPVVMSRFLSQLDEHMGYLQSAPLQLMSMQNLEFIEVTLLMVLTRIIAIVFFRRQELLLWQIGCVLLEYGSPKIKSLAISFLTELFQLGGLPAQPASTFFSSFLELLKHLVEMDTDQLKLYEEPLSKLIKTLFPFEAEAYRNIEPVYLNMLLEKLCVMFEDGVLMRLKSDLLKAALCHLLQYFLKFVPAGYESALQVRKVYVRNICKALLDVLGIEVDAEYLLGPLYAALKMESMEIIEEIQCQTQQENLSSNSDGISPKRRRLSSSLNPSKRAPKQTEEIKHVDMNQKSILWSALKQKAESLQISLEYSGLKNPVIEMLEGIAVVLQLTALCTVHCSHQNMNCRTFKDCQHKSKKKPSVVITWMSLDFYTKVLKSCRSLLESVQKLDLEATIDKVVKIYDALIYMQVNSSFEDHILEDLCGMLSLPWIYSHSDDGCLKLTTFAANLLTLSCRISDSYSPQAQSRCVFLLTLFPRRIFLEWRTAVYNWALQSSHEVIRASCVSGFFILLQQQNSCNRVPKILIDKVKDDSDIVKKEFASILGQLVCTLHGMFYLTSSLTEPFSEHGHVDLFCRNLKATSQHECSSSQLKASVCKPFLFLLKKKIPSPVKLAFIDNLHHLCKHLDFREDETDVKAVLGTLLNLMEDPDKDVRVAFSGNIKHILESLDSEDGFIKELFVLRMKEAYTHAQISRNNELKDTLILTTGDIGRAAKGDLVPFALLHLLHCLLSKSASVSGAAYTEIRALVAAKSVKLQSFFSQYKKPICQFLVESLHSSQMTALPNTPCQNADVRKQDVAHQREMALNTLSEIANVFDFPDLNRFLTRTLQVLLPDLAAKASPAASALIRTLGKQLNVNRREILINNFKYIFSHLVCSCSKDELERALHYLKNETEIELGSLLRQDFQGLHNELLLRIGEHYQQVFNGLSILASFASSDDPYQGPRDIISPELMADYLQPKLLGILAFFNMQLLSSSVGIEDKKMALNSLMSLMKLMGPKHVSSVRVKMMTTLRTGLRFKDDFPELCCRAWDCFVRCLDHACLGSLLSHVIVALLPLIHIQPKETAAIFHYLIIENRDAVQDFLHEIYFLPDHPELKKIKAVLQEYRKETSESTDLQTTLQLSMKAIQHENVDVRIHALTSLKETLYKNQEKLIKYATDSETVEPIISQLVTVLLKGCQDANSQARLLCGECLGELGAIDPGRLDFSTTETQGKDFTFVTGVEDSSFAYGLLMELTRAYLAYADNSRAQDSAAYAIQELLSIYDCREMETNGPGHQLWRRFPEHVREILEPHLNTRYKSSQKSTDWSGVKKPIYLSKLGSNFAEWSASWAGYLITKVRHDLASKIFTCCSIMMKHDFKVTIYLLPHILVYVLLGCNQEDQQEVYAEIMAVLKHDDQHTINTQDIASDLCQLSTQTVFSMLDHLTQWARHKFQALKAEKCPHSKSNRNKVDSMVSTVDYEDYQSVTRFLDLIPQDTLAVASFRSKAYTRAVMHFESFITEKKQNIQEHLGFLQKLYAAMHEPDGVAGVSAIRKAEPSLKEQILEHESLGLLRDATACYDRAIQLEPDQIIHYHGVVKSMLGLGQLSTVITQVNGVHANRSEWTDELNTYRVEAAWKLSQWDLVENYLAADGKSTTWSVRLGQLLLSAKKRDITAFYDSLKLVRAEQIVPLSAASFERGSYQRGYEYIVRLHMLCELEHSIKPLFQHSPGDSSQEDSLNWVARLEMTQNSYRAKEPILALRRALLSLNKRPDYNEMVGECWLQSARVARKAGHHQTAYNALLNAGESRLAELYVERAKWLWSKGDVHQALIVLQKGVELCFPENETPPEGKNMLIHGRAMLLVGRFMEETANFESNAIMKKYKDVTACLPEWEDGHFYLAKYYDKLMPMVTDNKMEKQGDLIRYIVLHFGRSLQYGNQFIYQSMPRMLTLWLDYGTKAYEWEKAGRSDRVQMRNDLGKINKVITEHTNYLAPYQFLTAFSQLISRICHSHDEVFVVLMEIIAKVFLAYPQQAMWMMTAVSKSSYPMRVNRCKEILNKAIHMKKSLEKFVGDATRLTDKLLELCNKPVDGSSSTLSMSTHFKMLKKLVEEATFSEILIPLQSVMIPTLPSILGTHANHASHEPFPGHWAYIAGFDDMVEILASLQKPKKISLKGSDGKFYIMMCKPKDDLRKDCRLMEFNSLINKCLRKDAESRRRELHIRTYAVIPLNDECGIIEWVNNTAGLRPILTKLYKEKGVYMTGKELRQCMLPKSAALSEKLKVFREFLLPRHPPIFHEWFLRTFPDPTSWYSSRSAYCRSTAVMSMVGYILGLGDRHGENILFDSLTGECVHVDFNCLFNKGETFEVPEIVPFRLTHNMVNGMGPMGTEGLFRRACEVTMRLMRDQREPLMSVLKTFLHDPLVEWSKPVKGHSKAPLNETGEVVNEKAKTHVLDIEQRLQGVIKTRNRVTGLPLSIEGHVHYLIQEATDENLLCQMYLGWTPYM

Row | Ki | SMILES
1 | 1 to 5 µM | Nc1nn2cc(F)cnc2c1C(=O)Nc1cncc(F)c1N1CCC(C(=O)N2CC(O)C2)CC1 [I-G-41, 2-amino-6-fluoro-N-(5-fluoro-4-(4-(3-hydroxyazetidine-1-carbonyl)piperidin-1-yl)pyridin-3-yl)pyrazolo[1,5-a]pyrimidine-3-carboxamide]
2 | 1 to 5 µM | Nc1nn2cc(F)cnc2c1C(=O)Nc1cncc(F)c1N1CCC(C(=O)N2CCN3CCC2C3)CC1 (stereo not shown) [I-G-46, N-(4-(4-(1,4-diazabicyclo[3.2.1]octane-4-carbonyl)piperidin-1-yl)-5-fluoropyridin-3-yl)-2-amino-6-fluoropyrazolo[1,5-a]pyrimidine-3-carboxamide]

same assay, conditions: Ki(app), 5 nM full-length ATR, 10 μM ATP, 25° C.

Row | SMILES | Ki
3 | Nc1nn2cc(F)cnc2c1C(=O)Nc1cncc(F)c1N1CCC(C(=O)NC2COC2)CC1 [I-G-37, 2-amino-6-fluoro-N-(5-fluoro-4-(4-(oxetan-3-ylcarbamoyl)piperidin-1-yl)pyridin-3-yl)pyrazolo[1,5-a]pyrimidine-3-carboxamide] | 0.01 to 1 µM
4 | CN1CCN(C(=O)C2CCN(c3c(F)cncc3NC(=O)c3c(N)nn4cc(F)cnc34)CC2)CC12CC2 [I-G-38, 2-amino-6-fluoro-N-(5-fluoro-4-(4-(4-methyl-4,7-diazaspiro[2.5]octane-7-carbonyl)piperidin-1-yl)pyridin-3-yl)pyrazolo[1,5-a]pyrimidine-3-carboxamide] | 0.01 to 1 µM
5 | COCCN(C)C(=O)C1CCN(c2c(F)cncc2NC(=O)c2c(N)nn3cc(F)cnc23)CC1 [I-G-40, 2-amino-6-fluoro-N-(5-fluoro-4-(4-((2-methoxyethyl)(methyl)carbamoyl)piperidin-1-yl)pyridin-3-yl)pyrazolo[1,5-a]pyrimidine-3-carboxamide] | 0.01 to 1 µM
6 | Nc1nn2cc(F)cnc2c1C(=O)Nc1cncc(F)c1N1CCC(C(=O)NCCN2CCC2)CC1 [I-G-42, 2-amino-N-(4-(4-((2-(azetidin-1-yl)ethyl)carbamoyl)piperidin-1-yl)-5-fluoropyridin-3-yl)-6-fluoropyrazolo[1,5-a]pyrimidine-3-carboxamide] | 0.01 to 1 µM
7 | Nc1nn2cc(F)cnc2c1C(=O)Nc1cncc(F)c1N1CCC(C(=O)N2CC(N3CCCC3)C2)CC1 [I-G-43, 2-amino-6-fluoro-N-(5-fluoro-4-(4-(3-(pyrrolidin-1-yl)azetidine-1-carbonyl)piperidin-1-yl)pyridin-3-yl)pyrazolo[1,5-a]pyrimidine-3-carboxamide] | 0.01 to 1 µM
8 | Nc1nn2cc(F)cnc2c1C(=O)Nc1cncc(F)c1N1CCC(C(=O)N2CC3CCC(C2)N3)CC1 [I-G-44, N-(4-(4-(3,8-diazabicyclo[3.2.1]octane-3-carbonyl)piperidin-1-yl)-5-fluoropyridin-3-yl)-2-amino-6-fluoropyrazolo[1,5-a]pyrimidine-3-carboxamide] | 0.01 to 1 µM
9 | C[C@@H]1CN(C(=O)C2CCN(c3c(F)cncc3NC(=O)c3c(N)nn4cc(F)cnc34)CC2)CCN1 [I-G-45, (R)-2-amino-6-fluoro-N-(5-fluoro-4-(4-(3-methylpiperazine-1-carbonyl)piperidin-1-yl)pyridin-3-yl)pyrazolo[1,5-a]pyrimidine-3-carboxamide] | 0.01 to 1 µM
10 | C[C@H]1CN(C(=O)C2CCN(c3c(F)cncc3NC(=O)c3c(N)nn4cc(F)cnc34)CC2)CCN1C [I-G-47, (S)-2-amino-N-(4-(4-(3,4-dimethylpiperazine-1-carbonyl)piperidin-1-yl)-5-fluoropyridin-3-yl)-6-fluoropyrazolo[1,5-a]pyrimidine-3-carboxamide] | 0.01 to 1 µM
11 | Nc1nn2cc(F)cnc2c1C(=O)Nc1cncc(Cl)c1N1CCC(C(=O)N2CCNCC2)CC1 [I-G-48, 2-amino-N-(5-chloro-4-(4-(piperazine-1-carbonyl)piperidin-1-yl)pyridin-3-yl)-6-fluoropyrazolo[1,5-a]pyrimidine-3-carboxamide] | 0.01 to 1 µM
12 | Nc1nn2cc(F)cnc2c1C(=O)Nc1cncc(F)c1N1CCC(C(=O)N2CC(N3CCC3)C2)CC1 [I-G-49, N-(4-(4-([1,3′-biazetidine]-1′-carbonyl)piperidin-1-yl)-5-fluoropyridin-3-yl)-2-amino-6-fluoropyrazolo[1,5-a]pyrimidine-3-carboxamide] | 0.01 to 1 µM
13 | C[C@@H]1CN(C(=O)C2CCN(c3c(F)cncc3NC(=O)c3c(N)nn4cc(F)cnc34)CC2)CCN1C [I-G-50, (R)-2-amino-N-(4-(4-(3,4-dimethylpiperazine-1-carbonyl)piperidin-1-yl)-5-fluoropyridin-3-yl)-6-fluoropyrazolo[1,5-a]pyrimidine-3-carboxamide] | 0.01 to 1 µM
14 | Nc1nn2cc(F)cnc2c1C(=O)Nc1cncc(F)c1N1CCC(C(=O)N2CC3CNCC3C2)CC1 (stereo not shown) [I-G-51, 2-amino-6-fluoro-N-(5-fluoro-4-(4-(octahydropyrrolo[3,4-c]pyrrole-2-carbonyl)piperidin-1-yl)pyridin-3-yl)pyrazolo[1,5-a]pyrimidine-3-carboxamide] | 0.01 to 1 µM
15 | CN1C2CCC1CN(C(=O)C1CCN(c3c(F)cncc3NC(=O)c3c(N)nn4cc(F)cnc34)CC1)C2 [I-G-52, 2-amino-6-fluoro-N-(5-fluoro-4-(4-(8-methyl-3,8-diazabicyclo[3.2.1]octane-3-carbonyl)piperidin-1-yl)pyridin-3-yl)pyrazolo[1,5-a]pyrimidine-3-carboxamide] | 0.01 to 1 µM

Next, values leading:

Row | Ki | SMILES
16 | 0.01 to 1 µM | CN1CC2CC1CN2C(=O)C1CCN(c2c(F)cncc2NC(=O)c2c(N)nn3cc(F)cnc23)CC1 (stereo not shown) [I-G-53, 2-amino-6-fluoro-N-(5-fluoro-4-(4-(5-methyl-2,5-diazabicyclo[2.2.1]heptane-2-carbonyl)piperidin-1-yl)pyridin-3-yl)pyrazolo[1,5-a]pyrimidine-3-carboxamide]
17 | 0.01 to 1 µM | CN1CCN(C(=O)C2(C)CCN(c3c(F)cncc3NC(=O)c3c(N)nn4cc(F)cnc34)CC2)CC1 [I-G-54, 2-amino-6-fluoro-N-(5-fluoro-4-(4-methyl-4-(4-methylpiperazine-1-carbonyl)piperidin-1-yl)pyridin-3-yl)pyrazolo[1,5-a]pyrimidine-3-carboxamide]
18 | 0.01 to 1 µM | Cc1cncc(NC(=O)c2c(N)nn3cc(F)cnc23)c1N1CCC(C(=O)N2CCN(C)CC2)CC1 [I-G-55, 2-amino-6-fluoro-N-(5-methyl-4-(4-(4-methylpiperazine-1-carbonyl)piperidin-1-yl)pyridin-3-yl)pyrazolo[1,5-a]pyrimidine-3-carboxamide]
19 | 0.01 to 1 µM | Cc1cncc(NC(=O)c2c(N)nn3cc(F)cnc23)c1N1CCC(C(=O)N2CCNCC2)CC1 [I-G-56, 2-amino-6-fluoro-N-(5-methyl-4-(4-(piperazine-1-carbonyl)piperidin-1-yl)pyridin-3-yl)pyrazolo[1,5-a]pyrimidine-3-carboxamide]
20 | 0.01 to 1 µM | Nc1nn2cc(F)cnc2c1C(=O)Nc1cncc(F)c1N1CCC(C(=O)N2CC(N3CCCCC3)C2)CC1 [I-G-57, 2-amino-6-fluoro-N-(5-fluoro-4-(4-(3-(piperidin-1-yl)azetidine-1-carbonyl)piperidin-1-yl)pyridin-3-yl)pyrazolo[1,5-a]pyrimidine-3-carboxamide]
21 | 0.01 to 1 µM | Nc1nn2cc(F)cnc2c1C(=O)Nc1cncc(F)c1N1CCC(C(=O)N2CC[C@H](N3CCCC3)C2)CC1 [I-G-58, (S)—N-(4-(4-([1,3′-bipyrrolidine]-1′-carbonyl)piperidin-1-yl)-5-fluoropyridin-3-yl)-2-amino-6-fluoropyrazolo[1,5-a]pyrimidine-3-carboxamide]
22 | 0.01 to 1 µM | Nc1nn2cc(F)cnc2c1C(=O)Nc1cncc(F)c1N1CCC(C(=O)N2CCC(N3CCCC3)CC2)CC1 [I-G-59, 2-amino-6-fluoro-N-(5-fluoro-4-(4-(4-(pyrrolidin-1-yl)piperidine-1-carbonyl)piperidin-1-yl)pyridin-3-yl)pyrazolo[1,5-a]pyrimidine-3-carboxamide]
23 | 0.01 to 1 µM | Nc1nn2cc(F)cnc2c1C(=O)Nc1cncc(F)c1N1CCC(C(=O)N2CCC(N3CCCCC3)CC2)CC1 [I-G-60, N-(4-(4-([1,4′-bipiperidine]-1′-carbonyl)piperidin-1-yl)-5-fluoropyridin-3-yl)-2-amino-6-fluoropyrazolo[1,5-a]pyrimidine-3-carboxamide]
24 | 0.01 to 1 µM | C[C@H]1CN(C(=O)C2CCN(c3c(F)cncc3NC(=O)c3c(N)nn4cc(F)cnc34)CC2)CCN1 [I-G-61, (S)-2-amino-6-fluoro-N-(5-fluoro-4-(4-(3-methylpiperazine-1-carbonyl)piperidin-1-yl)pyridin-3-yl)pyrazolo[1,5-a]pyrimidine-3-carboxamide]
25 | 0.01 to 1 µM | Nc1nn2cc(F)cnc2c1C(=O)Nc1cncc(F)c1N1CCC(C(=O)N2CCNC3CC32)CC1 (stereo not shown) [I-G-62, N-(4-(4-(2,5-diazabicyclo[4.1.0]heptane-2-carbonyl)piperidin-1-yl)-5-fluoropyridin-3-yl)-2-amino-6-fluoropyrazolo[1,5-a]pyrimidine-3-carboxamide]
26 | 0.01 to 1 µM | CC1(O)CN(C(=O)C2CCN(c3c(F)cncc3NC(=O)c3c(N)nn4cc(F)cnc34)CC2)C1 [I-G-63, 2-amino-6-fluoro-N-(5-fluoro-4-(4-(3-hydroxy-3-methylazetidine-1-carbonyl)piperidin-1-yl)pyridin-3-yl)pyrazolo[1,5-a]pyrimidine-3-carboxamide]
27 | 0.01 to 1 µM | Nc1nn2cc(F)cnc2c1C(=O)Nc1cncc(F)c1N1CCC(C(=O)N2CCC(N3CCCCC3)C2)CC1 (stereo not shown) [I-G-64, 2-amino-6-fluoro-N-(5-fluoro-4-(4-(3-(piperidin-1-yl)pyrrolidine-1-carbonyl)piperidin-1-yl)pyridin-3-yl)pyrazolo[1,5-a]pyrimidine-3-carboxamide]
28 | 0.01 to 1 µM | CN1CCN(C(=O)C2CCN(c3c(F)cncc3NC(=O)c3c(N)nn4cc(F)cnc34)CC2)C2CC21 (stereo not shown) [I-G-65, 2-amino-6-fluoro-N-(5-fluoro-4-(4-(5-methyl-2,5-diazabicyclo[4.1.0]heptane-2-carbonyl)piperidin-1-yl)pyridin-3-yl)pyrazolo[1,5-a]pyrimidine-3-carboxamide]
